Results reported in PubChem BioAssay (NCI).
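A five-concentration, 48-hour dose response in 96-well plates underlies each endpoint, interpolated linearly between surrounding concentrations. Definition used: TGI = concentration required for complete inhibition of growth.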

Legend:
Assay in all cases: NCI-60 cell line screen, 48 h
SK-OV-3 ovarian = test system: SK-OV-3 ovarian
SN12C renal = test system: SN12C renal
786-0 renal = test system: 786-0 renal
SK-MEL-5 melanoma = test system: SK-MEL-5 melanoma
SF-295 CNS = test system: SF-295 CNS
UACC-62 melanoma = test system: UACC-62 melanoma
M14 melanoma = test system: M14 melanoma
MALME-3M melanoma = test system: MALME-3M melanoma
IGROV1 ovarian = test system: IGROV1 ovarian
SF-539 CNS = test system: SF-539 CNS
OVCAR-8 ovarian = test system: OVCAR-8 ovarian
RPMI-8226 leukemia = test system: RPMI-8226 leukemia
LOX IMVI melanoma = test system: LOX IMVI melanoma
HCT-116 colon = test system: HCT-116 colon
HT29 colon = test system: HT29 colon
MDA-MB-231 breast = test system: MDA-MB-231 breast
RXF 393 renal = test system: RXF 393 renal
T-47D breast = test system: T-47D breast
MOLT-4 leukemia = test system: MOLT-4 leukemia
HOP-92 NSCLC = test system: HOP-92 NSCLC

Structure (SMILES)	TGI (SK-OV-3 ovarian) [µM]	TGI (SN12C renal) [µM]	TGI (786-0 renal) [µM]	TGI (SK-MEL-5 melanoma) [µM]	TGI (SF-295 CNS) [µM]	TGI (UACC-62 melanoma) [µM]	TGI (M14 melanoma) [µM]	TGI (MALME-3M melanoma) [µM]	TGI (IGROV1 ovarian) [µM]	TGI (SF-539 CNS) [µM]	TGI (OVCAR-8 ovarian) [µM]	TGI (RPMI-8226 leukemia) [µM]	TGI (LOX IMVI melanoma) [µM]	TGI (HCT-116 colon) [µM]	TGI (HT29 colon) [µM]	TGI (MDA-MB-231 breast) [µM]	TGI (RXF 393 renal) [µM]	TGI (T-47D breast) [µM]	TGI (MOLT-4 leukemia) [µM]	TGI (HOP-92 NSCLC) [µM]
OC(c1ccccc1)(c1ccccc1)c1cccnc1	> 100	> 100	> 100	> 100	> 100	> 100	> 100	> 100	> 100	> 100	> 100	> 100	> 100	> 100	> 100					
CN(/N=C/c1cccs1)c1ccc([N+](=O)[O-])cc1[N+](=O)[O-]	> 100	> 100	> 100	> 100	> 100	> 100	> 100		> 100	> 100	> 100	> 100		> 100	> 100	> 100	> 100	> 100	> 100	
CCOC(=O)CN1CCSC1=NC#N	> 100	> 100		> 100	> 42.7	> 100		> 100	> 100	> 100	> 100	> 100	> 37.6	> 100	> 100		> 100		> 100	> 100
CC1CC/C(=C\c2ccc(N(C)C)cc2)C(=O)/C1=C/c1ccc(N(C)C)cc1 (centres undefined)	> 100	> 100	> 100	> 100	> 100	> 100	> 100	> 100	> 100	> 100	> 100		> 100	> 100	> 100	> 100		> 100	> 100	
CSCC[C@H]1C(=O)N=C(N)N1C(=O)OCc1ccccc1		> 100	> 100	> 100	> 100	63.9		> 100	> 100		> 100	> 100	> 100	37.7	> 100	> 100	45.6		51.5	
C=C(N=[N+]=[N-])c1cn(C2CC(O)C(CO)O2)c(=O)[nH]c1=O (centres undefined)	> 100	> 100	> 100	> 100	> 100	> 100	> 100	> 100	> 100	> 100	> 100	> 100	> 100	> 100	> 100		> 100		> 100	> 100
O=C(Nc1ccc([N+](=O)[O-])cc1)C(=O)C(C(=O)c1ccccc1F)C1OC(=O)c2ccccc21 (centres undefined)	> 100	> 100		> 100	> 100	> 100	> 100		> 100	56	> 100	68.9	60.7	> 100	> 100		79.6		> 100	> 100
